Experimental data taken from PMC12131194, “Rational design, synthesis, and evaluation of novel polypharmacological compounds targeting NaV1.5, KV1.5, and K2P channels for atrial fibrillation” (The Journal of Biological Chemistry, 2025).

Tests used:
[1] = biological target: T1, human NaV1.5 (Homo sapiens, UniProt Q14524); test: Whole-cell patch-clamp in transfected HEK-293 cells, NaV1.5; format: cell-based; details: 10 μM and 100 μM, −10 mV
T1 construct: host or cells: HEK-293 (transient transfection)
T1 sequence (Q14524 whole entry): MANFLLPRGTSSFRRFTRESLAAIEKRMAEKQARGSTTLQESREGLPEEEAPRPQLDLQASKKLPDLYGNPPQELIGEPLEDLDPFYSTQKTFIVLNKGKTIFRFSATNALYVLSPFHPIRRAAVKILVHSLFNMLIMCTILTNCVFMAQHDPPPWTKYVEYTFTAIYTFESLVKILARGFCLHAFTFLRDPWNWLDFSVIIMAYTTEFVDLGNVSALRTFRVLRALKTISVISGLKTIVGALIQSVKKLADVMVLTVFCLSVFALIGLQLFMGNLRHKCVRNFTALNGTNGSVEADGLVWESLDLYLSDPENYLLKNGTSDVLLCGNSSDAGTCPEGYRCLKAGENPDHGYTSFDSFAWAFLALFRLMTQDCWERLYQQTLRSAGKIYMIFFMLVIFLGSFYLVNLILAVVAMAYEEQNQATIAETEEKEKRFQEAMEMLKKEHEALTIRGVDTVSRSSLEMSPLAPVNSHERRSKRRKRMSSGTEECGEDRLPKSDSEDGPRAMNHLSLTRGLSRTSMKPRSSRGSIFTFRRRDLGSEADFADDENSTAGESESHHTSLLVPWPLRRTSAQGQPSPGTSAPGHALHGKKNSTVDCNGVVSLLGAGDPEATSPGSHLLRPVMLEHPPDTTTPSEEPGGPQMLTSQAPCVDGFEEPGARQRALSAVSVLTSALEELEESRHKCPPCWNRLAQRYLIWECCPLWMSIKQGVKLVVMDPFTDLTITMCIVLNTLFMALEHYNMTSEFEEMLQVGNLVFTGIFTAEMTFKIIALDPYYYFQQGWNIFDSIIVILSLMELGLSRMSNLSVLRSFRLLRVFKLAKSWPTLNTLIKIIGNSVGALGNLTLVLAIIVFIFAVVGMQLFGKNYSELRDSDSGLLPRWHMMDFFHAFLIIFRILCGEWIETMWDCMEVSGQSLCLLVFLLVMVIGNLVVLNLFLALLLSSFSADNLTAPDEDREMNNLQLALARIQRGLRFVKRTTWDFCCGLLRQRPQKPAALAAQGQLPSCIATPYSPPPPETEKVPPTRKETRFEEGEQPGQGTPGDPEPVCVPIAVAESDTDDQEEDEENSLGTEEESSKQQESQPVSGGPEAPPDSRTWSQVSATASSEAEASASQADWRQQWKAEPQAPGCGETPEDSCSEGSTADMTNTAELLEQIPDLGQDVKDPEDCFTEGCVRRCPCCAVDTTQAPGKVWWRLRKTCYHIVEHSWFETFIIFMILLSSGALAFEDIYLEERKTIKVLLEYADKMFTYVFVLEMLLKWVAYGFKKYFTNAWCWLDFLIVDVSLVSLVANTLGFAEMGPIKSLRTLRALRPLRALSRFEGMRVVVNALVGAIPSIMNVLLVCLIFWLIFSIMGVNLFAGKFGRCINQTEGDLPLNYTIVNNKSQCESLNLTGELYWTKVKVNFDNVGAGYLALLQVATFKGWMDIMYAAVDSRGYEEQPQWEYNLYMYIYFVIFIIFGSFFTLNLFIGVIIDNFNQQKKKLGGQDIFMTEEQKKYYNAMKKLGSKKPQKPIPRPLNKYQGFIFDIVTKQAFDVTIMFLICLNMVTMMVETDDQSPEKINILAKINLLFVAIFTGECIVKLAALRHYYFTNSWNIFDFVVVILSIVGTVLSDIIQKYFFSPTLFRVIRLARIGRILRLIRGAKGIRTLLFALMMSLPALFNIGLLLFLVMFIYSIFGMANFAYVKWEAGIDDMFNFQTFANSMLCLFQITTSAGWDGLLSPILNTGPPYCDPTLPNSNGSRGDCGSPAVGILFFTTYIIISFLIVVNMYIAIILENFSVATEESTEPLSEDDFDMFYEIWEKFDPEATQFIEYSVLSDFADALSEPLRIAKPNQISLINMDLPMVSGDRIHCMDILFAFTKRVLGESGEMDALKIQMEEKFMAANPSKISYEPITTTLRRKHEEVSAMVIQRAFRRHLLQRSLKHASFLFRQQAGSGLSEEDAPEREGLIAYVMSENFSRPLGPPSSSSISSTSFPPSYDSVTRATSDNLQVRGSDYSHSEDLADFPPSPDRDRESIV
Experimental: (§1) The human embryonic kidney 293 (HEK-293) cell line was obtained from the American Type Culture Collection. HEK-293 cells were cultured in Dulbecco’s modified Eagle’s medium (DMEM-F12, Invitrogen Life Technologies) supplemented with 5% (v/v) fetal bovine serum (FBS) (Thermo Fisher Scientific) and 1% antibiotics (penicillin 100 U/ml y streptomycin 100 μg/ml) (Gibco, Thermo Fisher). The cells were maintained at 37 °C and 5% CO2 atmosphere.
(§2) For the electrophysiological experiments, HEK-293 cells were transiently transfected with cDNA encoding human NaV1.5 (plasmid 145,374, Addgene), KV1.5 (NM_002234), and TASK-1 (NM_002246). […] The cells were incubated for 4 h in transfection medium OptiMEM (Invitrogen). […]
(§3) For Nav1.5, the effect of 6f at both concentrations was tested using a repetitive single test voltage pulse at −10 mV (during 20 ms) from a holding potential of −80 mV, with intervals of 5s between pulses. For Kv1.5 and TASK-1, ramp voltage protocols were applied with pulse intervals of 20 s, and the currents were analyzed at +40 mV.
(§4) After recording currents with stable amplitudes, the cells were treated with 6f and applied from the bath solution. Currents were continuously recorded during repetitive pulses until a stable effect was achieved. […] The inhibition percentage was calculated as follows: Inℎibition (%) = 100 ∗ (Icontrol − Idrug)/Icontrol.

[2] = biological target: human TASK-1 (Homo sapiens, UniProt O14649); test: Whole-cell patch-clamp in transfected HEK-293 cells, TASK-1; format: cell-based; parameters: human TASK-1 (KCNK3, NM_002246); expressed in transfected cells; details: HEK293, +40 mV
Sequence of human TASK-1 (O14649 whole entry): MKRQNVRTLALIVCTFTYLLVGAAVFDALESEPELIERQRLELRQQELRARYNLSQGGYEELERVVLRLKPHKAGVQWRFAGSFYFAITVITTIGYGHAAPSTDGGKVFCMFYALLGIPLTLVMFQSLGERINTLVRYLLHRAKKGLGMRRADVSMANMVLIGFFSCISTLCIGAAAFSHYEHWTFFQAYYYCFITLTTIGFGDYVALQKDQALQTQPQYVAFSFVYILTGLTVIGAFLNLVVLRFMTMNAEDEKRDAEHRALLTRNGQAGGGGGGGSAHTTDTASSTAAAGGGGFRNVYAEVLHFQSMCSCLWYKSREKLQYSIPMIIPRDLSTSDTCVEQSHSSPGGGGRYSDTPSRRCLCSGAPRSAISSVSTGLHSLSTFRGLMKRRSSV
Experimental: as §1, §2
as §3, with “mV. […]” for “mV.”
as §4

- inhibition at 10 µM ([2]; 10 μM): 70%
- inhibition at 100 µM ([2]; 100 μM): 70%
SMILES: CCCCN(CCCC)CC(=O)Nc1ccc(OC)cc1OC [Compound 6f, 2-(dibutylamine)-N-(2,4-dimethoxiphenyl)acetamide]
- Blockade of NaV1.5 in HEK cells [1]: significant blockade by 6f only at 100 μM
